Columns and labels:
female mosquitoes [1] = test: Efficacy by ingestion: feeder test in 6-liter cage, death rate of female mosquitoes; assay type: in vivo; conditions: for Death Rate / Death Rate within 24 hrs after treatment removed / Death Rate within 2 days after treatment removed / Death Rate within 3 days after treatment removed / Death Rate within 4 days after treatment removed: 10% sugar in CPDA, 24 hrs; for timing of death after ingestion (“delayed” death): after treatment was removed
Source text: Female mosquitoes were used in the experiment because only female mosquitoes bite humans and animals and transmit infectious diseases.
(2R)-3-fluoropropane-1,2-diol (rFOH) was used as the active agent at various concentrations. A sugar feeder containing 10% sucrose, which is a regular mosquito feeder in a laboratory setting, was used as a regular food source in free choice studies. A free choice study allows the pests to select which feeder to feed on when given two or more choices.
In a two-choice test, a 6-liter cage was supplied with two feeders, one contained 5% rFOH and 10% sucrose in CPDA and the other one contained 10% sucrose without any rFOH or CPDA. 100 female mosquitoes were placed in the cage having the two feeders such that the mosquitoes chose freely which feeder to feed on. After 24 hours of feeding in the cage, over 80% of mosquitoes were dead. […] When the concentration of rFOH was reduced to 1% or 0.15%, its effectiveness remained the same. Over 80% of mosquitoes were dead due to 24 hours of feeding with rFOH.
Subsequent to 24 hours of feeding, rFOH feeder was removed from the cage and a regular sugar feeder (10% sucrose) was provided. In the next day, 5-20% of residual death was observed, indicating a delayed death after rFOH ingestion.
In a further study, mosquitoes were fasted for 24 hours before feeding to ensure that all mosquitoes have the capacity for food intake. […] Thus, fasting is not a cause of mosquito death during a series of experiments.
The experiments determined that 0.1% rFOH was sufficient to achieve 50% death (LD50) under various conditions. In one study, 100 mosquitoes were caged in a 6-liter space and fasted for 24 hours. Subsequently, the mosquitoes were fed on two feeders giving their free choices for 0.1% rFOH containing 10% sucrose in CPDA or 10% sucrose without rFOH for 24 hours, resulting in 43% death. In a parallel study in which the cage was supplied with a single feeder, the 0.1% rFOH feeder containing 10% sucrose in CPDA, which caused 44% of death after 24 hours of feeding.
Similar experiments as disclosed above were performed with various rFOH concentrations under various conditions. The rFOH composition contained 10% sugar in CPDA solution unless specified otherwise.
Similar experiments as disclosed above were performed on female mosquitoes to determine LD50. The rFOH composition contained 10% sugar in CPDA solution unless specified otherwise.
(§1) Similar experiments as disclosed above were performed on female mosquitoes using different active agents at various concentrations. The active agent composition contained 10% sugar in CPDA solution unless specified otherwise.

Escherishia coli DH5α = test: MIC test, broth microdilution (CLSI M07-A9); assay type: cell-based
Procedure: (§2) The effects of pesticides disclosed herein on various bacteria were tested by determining the minimal inhibitory concentration (MIC) of the pesticides. MIC of an antimicrobial agent is the lowest concentration of the antimicrobial agent that inhibits a given bacterial isolate from multiplying and producing visible growth in the test system. The MIC of rFOH and BrOH was determined in the laboratory by incubating a known quantity of bacteria with a series of dilutions of the active agents and comparing their effects with those of known antimicrobial agents. Table 6 lists the representative bacterial strains and the conditions in MIC tests. Antimicrobial tests of the active agents were conducted according to “Methods for Dilution Antimicrobial Susceptibility Tests for Bacteria That Grow Aerobically” by Clinical and Laboratory Standards Institute (CLSI) (CLSI document M07-A9, 2012). In the study, methicillin/oxacillin resistant Staphylococcus aureus (MRSA) strain (ATCC 43300) was routinely under screening with 4 ug/ml oxacillin. Escherishia coli DH5α was a nonpathogenic laboratory strain. […] When the DH5α/plasmid (DH5P) colony was used, the colony was maintained in the presence of 100 ug/ml ampicillin.
(§3) MIC tests were conducted in 96 well microtiter plates with a total volume of 150 ul broth in each well. The directly colony suspension method (CLSI document M07-A9, 2012) was applied to obtain MIC for antimicrobial tests of the active agents. After colonies were freshly incubated overnight, colonies were suspended in sterile water to adjust the inoculum to a turbidity equivalent to a 0.5 McFarland standard (corresponding to approximately 1.5×10^8 CFU/ml). Within 10 minutes, the inoculum was adjusted by dilution in broth to reach a final concentration of 5×10^5 CFU/ml. A series of various concentrations of the active agents were applied to determine the MIC. In the same microtiter plate, an internal standard formulated by a concentration series of standard antibiotic agent was incubated in parallels to allow for back-to-back comparison.

[2] = test system: Escherishia coli DH5α transformed with a pcDNA3 plasmid (DH5P); test: MIC test, broth microdilution (CLSI M07-A9); assay type: cell-based
Procedure: as §2, §3

[3] = test system: Methicillin/oxacillin resistant Staphylococcus aureus (MRSA) strain (ATCC 43300); test: MIC test, broth microdilution (CLSI M07-A9); assay type: cell-based
Procedure: as §2, §3

female mosquitoes [4] = test: Membrane feeding test, death rate of female mosquitoes; assay type: in vivo; conditions: active agent at 1%; 18 hrs fasting; membrane feeding for 1 hour and 45 minutes before sugar feeder provided
Procedure: as §1
This is because membrane feeding provides only a small space accessible to a limited number of mosquitoes for feeding.

Stability of FOH = assay type: physicochemical; conditions: normal temperature and pressure
Procedure: In some embodiments, 3-fluoropropane-1,2-diol (FOH) (R^1═R^2=R^3═R^5═H, n=2, m=0 in formula I) is exemplified as an active agent of the compositions disclosed herein. FOH has two enantiomeric isomers (2r)-3-fluoropropane-1,2-diol (rFOH) and (2s)-3-fluoropropane-1,2-diol (sFOH). FOH is a nonvolatile chemical having a boiling point of 205.4° C. at 760 mm Hg, a flash point of 87.2° C., and a density of 1.192 g/cm^3. FOH is stable under normal temperature and pressure. The chemical synthesis of FOH is known in the art (Dummel et al., J. Med. Chem. 12(2): 347 (1969)). The chemical structure of FOH, representing both rFOH and sFOH, is shown below: […]

[5] = Tryptic soy broth, 37° C. for 24 hrs, listed as BrOH
[6] = active agent at 0.5%, 24 hrs fasting, sugar feeder not provided
[7] = active agent at 1.5%, 24 hrs fasting, sugar feeder not provided
[8] = internal standard in the same microtiter plate
[9] = active agent at 0.5%, not fasted, sugar feeder provided for free choice
[10] = active agent at 1%, 24 hrs fasting, sugar feeder not provided

OCC(O)CBr (stereo not drawn) [3-Bromopropane-1,2-diol]
Death Rate (female mosquitoes [1]; active agent at 0.15%, 24 hrs fasting, sugar feeder provided for free choice, death found for a week after treatment was removed): 30-52%
Death Rate (female mosquitoes [1]; active agent at 0.2%, 24 hrs fasting, sugar feeder not provided, death found for a week after treatment was removed): >85% death
timing of death after ingestion (“delayed” death) (female mosquitoes [1]): Delayed
MIC (Escherishia coli DH5α; [5]): 0.025%
MIC [2, 5]: 0.2%
MIC ([3]; Mueller Hinton broth with 2% NaCl and 50 ug/ml CaCl2, 35° C. for 24 hrs, listed as BrOH): 2.5%

C[C@@H](Cl)C(=O)O [(R)-(+)-2-Chloropropionic acid]
Death Rate (female mosquitoes [1]; [6]): 10%

OC[C@H]1O[C@@H](O)[C@H](O)[C@@H](O)[C@@H]1F [4-Deoxy-4-fluoro-β-D-glucopyranose]
Death Rate in 2 hours (female mosquitoes [4]): 10% in 2
Death Rate in 24 hours (female mosquitoes [4]): hours, 17%
Death Rate in the first hour (female mosquitoes [4]): 2% in the

OC1CCCCC1O (stereo not drawn) [1,2-cyclohexanediol]
Death Rate (female mosquitoes [1]; [6]): 22%

OCC(CO)c1ccccc1 [2-Penyl-1,3-propanediol]
Death Rate (female mosquitoes [1]; [7]): 61%

O=c1[nH]c(=O)n([C@H]2C[C@H](O)[C@@H](CO)O2)cc1F [2′-Deoxy-5-fluorouridine]
Death Rate (female mosquitoes [1]; active agent at 2%, 24 hrs fasting, sugar feeder not provided): 24%

OCC(O)CF (stereo not drawn) [FOH, 3-fluoropropane-1,2-diol]
stability (Stability of FOH): stable

OC[C@H](O)CF [sFOH, (2s)-3-fluoropropane-1,2-diol]
Death Rate (female mosquitoes [1]; active agent at 0.3%, 24 hrs fasting, sugar feeder not provided, death found for a week after treatment was removed): 42-68%
Death Rate (female mosquitoes [1]; active agent at 0.5%, 24 hrs fasting, sugar feeder not provided, death found for a week after treatment was removed): >85% death
timing of death after ingestion (“delayed” death) (female mosquitoes [1]): Delayed

CC1(C)S[C@@H]2[C@H](NC(=O)[C@H](N)c3ccccc3)C(=O)N2[C@H]1C(=O)O [ampicillin, reference compound]
Comparable Effectiveness (standard antibiotic concentration as effective as 0.4% rFOH) (Escherishia coli DH5α; [8]): 19 µg/mL
Comparable Effectiveness (standard antibiotic concentration as effective as 0.4% rFOH) [2, 8]: 240 µg/mL

Nc1ccn([C@@H]2O[C@H](CO)[C@@H](O)C2(F)F)c(=O)n1 [Gemcitabine, reference compound]
Death Rate within 24 hrs after treatment removed (female mosquitoes [1]; [9]): 3% within
Death Rate within 2 days after treatment removed (female mosquitoes [1]; [9]): removed, 36%
Death Rate within 3 days after treatment removed (female mosquitoes [1]; [9]): 66%

OCC1(CO)CCC1 [1,1-Bis(hydroxymethyl)cyclobutane]
Death Rate (female mosquitoes [1]; [6]): 50%

CO[C@@]1(NC(=O)Cc2cccs2)C(=O)N2C(C(=O)O)=C(COC(N)=O)CS[C@@H]21 [cefoxitin, reference compound]
Comparable Effectiveness (standard antibiotic concentration as effective as 0.4% rFOH) [3, 8]: 48 µg/mL

Nc1nc(F)nc2c1ncn2[C@@H]1O[C@H](CO)[C@@H](O)[C@H]1O [2-Fluoroadenosine]
Death Rate within 24 hrs after treatment removed (female mosquitoes [1]; [10]): 22% within
Death Rate within 2 days after treatment removed (female mosquitoes [1]; [10]): removed, 47%
Death Rate within 3 days after treatment removed (female mosquitoes [1]; [10]): removed, 64%
Death Rate within 4 days after treatment removed (female mosquitoes [1]; [10]): 75-80% within
Death Rate within 4 days after treatment removed (female mosquitoes [1]; active agent at 1%, 24 hrs fasting, sugar feeder not provided, listed as 2-fluoroadenosine): 75-80%
timing of death after ingestion (“delayed” death) (female mosquitoes [1]): delayed

CC(C)(O)C(C)(C)O [2,3-Dimethylbutane-2,3-diol]
Death Rate (female mosquitoes [1]; [7]): 53%

CC(C)(CO)CO [2,2-Dimethyl-1,3-propanediol]
Death Rate (female mosquitoes [1]; active agent at 0.5%, 24 hrs fasting, sugar feeder provided for free choice): 10%

CC(CO)CO [2-Methyl-1,3-propanediol]
Death Rate (female mosquitoes [1]; [6]): 12%

Nc1nc(F)nc2nc[nH]c12 [2-Fluoroadenine]
Death Rate (female mosquitoes [1]; active agent at 0.2%, 24 hrs fasting, sugar feeder provided for free choice): 30%

OCC(O)CCl (stereo not drawn) [3-Chloro-1,2-propanediol]
Death Rate (female mosquitoes [1]; active agent at 0.15%, 24 hrs fasting, sugar feeder not provided): >85%

NC(CO)CO [2-Amino-1,3-propanediol]
Death Rate (female mosquitoes [1]; [6]): 16%

Reference: patent US11553713B2, “Polyalcohol, carbohydrate, nucleobase and nucleotide compositions and uses thereof” (Chunbo Zhang, priority 2015, dated 2023)
